Data taken from patent publication US20190367516A1 (Bayer Pharma Aktiengesellschaft, priority 2015, published 2019).
Like-named read-outs stand apart in the source and are kept apart here.

Molecular target: T1, human M2 receptor (Homo sapiens, UniProt P08172)
T1 sequence (P08172 1-466): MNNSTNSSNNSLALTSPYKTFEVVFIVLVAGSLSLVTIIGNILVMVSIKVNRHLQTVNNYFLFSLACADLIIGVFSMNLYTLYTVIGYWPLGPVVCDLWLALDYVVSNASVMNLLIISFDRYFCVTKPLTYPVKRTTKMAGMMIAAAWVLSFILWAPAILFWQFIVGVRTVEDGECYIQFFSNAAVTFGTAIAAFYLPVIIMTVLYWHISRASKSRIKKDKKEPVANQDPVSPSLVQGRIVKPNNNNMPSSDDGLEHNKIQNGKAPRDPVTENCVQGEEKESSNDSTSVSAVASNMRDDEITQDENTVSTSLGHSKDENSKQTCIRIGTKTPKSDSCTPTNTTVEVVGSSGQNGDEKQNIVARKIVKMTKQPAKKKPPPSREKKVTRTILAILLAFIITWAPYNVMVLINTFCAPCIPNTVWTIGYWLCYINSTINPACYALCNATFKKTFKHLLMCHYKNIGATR
Details: for Efficiency: boosting of the acetylcholine effect at EC20 acetylcholine concentration

[1] = Receptor activity EC50, allosteric potency at EC20 acetylcholine, M2-GIRK1/4 reporter cells, in some cases mean of two or more determinations
[2] = read-out: Efficiency, boosting of the acetylcholine effect at EC20 acetylcholine concentration, M2-GIRK1/4 reporter cells
[3] = Receptor activity EC50, M2-GIRK1/4 activation test, acetylcholine at EC20, allosteric potency, in some cases mean values from two or more determinations

| Structure (SMILES) | EC50 [1] [nM] | Emax [2] [%] | EC50 [3] [nM] | other results |
| --- | --- | --- | --- | --- |
| CC(C)C[C@H](NC(=O)c1cn(-c2c(F)cc(F)cc2F)c2nc(N3C[C@@H](O)CC3=O)ccc2c1=O)C(F)(F)F [Example 525, 7-[(4S)-4-Hydroxy-2-oxopyrrolidin-1-yl]-oxo-N-[(2S)-1,1,1-trifluoro-4-methylpentan-2-yl]-1-(2,4,6-trifluorophenyl)-1,4-dihydro-1,8-naphthyridine-3-carboxamide] | 5 | 100 | – | – |
| Cc1ccccc1C(NC(=O)c1cn(-c2ccc(F)cc2F)c2nc(N(C)C)ccc2c1=O)C(F)(F)F (racemic) [Example 142, rac-1-(2,4-Difluorophenyl)-7-(dimethylamino)-4-oxo-N-[2,2,2-trifluoro-1-(2-methylphenyl)ethyl]-1,4-dihydro-1,8-naphthyridine-3-carboxamide] | – | – | 110 | – |
| CC(C)(CC(F)(F)F)NC(=O)c1cn(-c2c(F)cc(F)cc2Cl)c2nc(N3CCNC3=O)ccc2c1=O [Example 394, 1-(2-Chloro-4,6-difluorophenyl)-4-oxo-7-(2-oxoimidazolidin-1-yl)-N-(4,4,4-trifluoro-2-methylbutan-2-yl)-1,4-dihydro-1,8-naphthyridine-3-carboxamide] | – | – | 7 | – |
| O=C(N[C@@H](C1CC1)C(F)(F)F)c1cn(-c2c(F)cc(F)cc2F)c2nc(N3C[C@H](C(=O)O)OC3=O)ccc2c1=O [Example 670, (5R)-3-[6-{[(1S)-1-Cyclopropyl-2,2,2-trifluoroethyl]carbamoyl}-5-oxo-8-(2,4,6-trifluorophenyl)-5,8-dihydro-1,8-naphthyridin-2-yl]-2-oxo-1,3-oxazolidine-5-carboxylic acid] | 1450 | 66.5 | – | – |
| CC(C)(NC(=O)c1cn(-c2c(F)cc(F)cc2F)c2nc(N3C[C@@H](O)[C@H](O)C3)ccc2c1=O)C(F)(F)F [Example 403] | 32 | 100 | – | – |
| CC[C@@H](NC(=O)c1cn(-c2ccc(F)cc2F)c2nc(N3CCOC(C(F)F)C3)ccc2c1=O)C(F)(F)F (single isomer, unassigned) [Example 265] | – | – | 23700 | – |
| CN(C)c1ccc2c(=O)c(C(=O)NC(c3cccc(F)c3)C(F)(F)F)cn(-c3ccc(F)cc3F)c2n1 (racemic) [Example 140, rac-1-(2,4-Difluorophenyl)-7-(dimethylamino)-4-oxo-N-[2,2,2-trifluoro-1-(3-fluorophenyl)ethyl]-1,4-dihydro-1,8-naphthyridine-3-carboxamide] | – | – | 68 | – |
| O=C(NC12CC3CC(CC(C3)C1)C2)c1cn(-c2ccc(F)cc2F)c2nc(N3CCOC[C@H]3CO)ccc2c1=O [Example 117, 1-(2,4-Difluorophenyl)-7-[(3R)-3-(hydroxymethyl)morpholin-4-yl]-4-oxo-N-(tricyclo[3.3.1.1^3,7]dec-1-yl)-1,4-dihydro-1,8-naphthyridine-3-carboxamide] | – | – | 89 | – |
| CC[C@H](NC(=O)c1cn(-c2c(Cl)cc(F)cc2Cl)c2nc(N3C[C@@H](O)CC3=O)ccc2c1=O)C(F)(F)F [Example 389, 1-(2,6-Dichloro-4-fluorophenyl)-7-[(4S)-4-hydroxy-2-oxopyrrolidin-1-yl]-4-oxo-N-[(2S)-1,1,1-trifluorobutan-2-yl]-1,4-dihydro-1,8-naphthyridine-3-carboxamide] | – | – | 38 | Emax (read-out: Efficiency): 85.5% |
| CC(C)(CC(F)(F)F)NC(=O)c1cn(-c2c(F)cc(F)cc2Cl)c2nc(N3C[C@@H](O)[C@H](O)C3)ccc2c1=O (single isomer, unassigned) [Example 393] | – | – | 125 | – |
| O=C(NC12CC3CC(CC(C3)C1)C2)c1cn(-c2ccc(F)cc2F)c2nc(N3CCS(=O)(=O)C3)ccc2c1=O [Example 130, 1-(2,4-Difluorophenyl)-7-(1,1-dioxido-1,3-thiazolidin-3-yl)-4-oxo-N-(tricyclo[3.3.1.1^3,7]dec-1-yl)-1,4-dihydro-1,8-naphthyridine-3-carboxamide] | – | – | 113 | – |
| CC[C@@H](NC(=O)c1cn(-c2c(F)cccc2Cl)c2nc(N3CC[C@H](O)C3=O)ccc2c1=O)C(F)(F)F [Example 309, 1-(2-Chloro-6-fluorophenyl)-7-[(3S)-3-hydroxy-2-oxopyrrolidin-1-yl]-4-oxo-N-[(2R)-1,1,1-trifluorobutan-2-yl]-1,4-dihydro-1,8-naphthyridine-3-carboxamide] | – | – | 40 | – |
| O=C(NC(c1ccccc1Cl)C(F)(F)F)c1cn(-c2c(F)cc(F)cc2F)c2nc(N3CCNC3=O)ccc2c1=O (racemic) [Example 563, N-[1-(2-Chlorophenyl)-2,2,2-trifluoroethyl]-4-oxo-7-(2-oxoimidazolidin-1-yl)-1-(2,4,6-trifluorophenyl)-1,4-dihydro-1,8-naphthyridine-3-carboxamide] | 20 | 100 | – | – |
| O=C(NC(CC(F)(F)F)C(F)(F)F)c1cn(-c2c(F)cc(F)cc2F)c2nc(N3CCNC3=O)ccc2c1=O (racemic) [Example 588, N-[1,1,1,4,4,4-Hexafluorobutan-2-yl]-4-oxo-7-(2-oxoimidazolidin-1-yl)-1-(2,4,6-trifluorophenyl)-1,4-dihydro-1,8-naphthyridine-3-carboxamide] | 9 | – | – | Efficiency (M2-GIRK1/4 reporter cells): 100.0% |
| CC[C@@H](NC(=O)c1cn(-c2ccc(F)cc2F)c2nc(N3CC(C)NC3=O)ccc2c1=O)C(F)(F)F (single isomer, unassigned) [Example 433] | 170 | – | – | Efficiency (M2-GIRK1/4 reporter cells): 100.0% |
| CC(C)(NC(=O)c1cn(-c2c(F)cc(F)cc2F)c2nc(N3CCCN(CCO)C3=O)ccc2c1=O)C(F)F [Example 382, N-(1,1-Difluoro-2-methylpropan-2-yl)-7-[3-(2-hydroxyethyl)-2-oxotetrahydropyrimidin-1(2H)-yl]-4-oxo-1-(2,4,6-trifluorophenyl)-1,4-dihydro-1,8-naphthyridine-3-carboxamide] | – | – | 72 | – |
| CCC(NC(=O)c1cn(-c2c(F)cc(F)cc2F)c2nc(N3C[C@@H](O)CC3=O)ccc2c1=O)C(C)C (single isomer, unassigned) [Example 486] | 4 | – | – | Efficiency (M2-GIRK1/4 reporter cells): 100.0% |
| O=C(N[C@@H](C1CC1)C(F)(F)F)c1cn(-c2c(F)cc(F)cc2F)c2nc(N3C[C@@H](C(=O)O)OC3=O)ccc2c1=O [Example 667, (5S)-3-[6-{[(1S)-1-Cyclopropyl-2,2,2-trifluoroethyl]carbamoyl}-5-oxo-8-(2,4,6-trifluorophenyl)-5,8-dihydro-1,8-naphthyridin-2-yl]-2-oxo-1,3-oxazolidine-5-carboxylic acid] | 3850 | 100 | – | – |
| CC[C@H](NC(=O)c1cn(-c2c(F)cc(F)cc2Cl)c2nc(N3C[C@@H](O)[C@H](O)C3)ccc2c1=O)C(F)(F)F (single isomer, unassigned) [Example 567] | 140 | 80 | – | – |
| C[C@H](NC(=O)c1cn(-c2c(F)cc(F)cc2F)c2nc(N3C[C@@H](O)[C@H](O)C3)ccc2c1=O)C1CC1 [Example 477, N-[(1 S)-1-Cyclopropylethyl]-7-[(3R,4R)-3,4-dihydroxypyrrolidin-1-yl]-4-oxo-1-(2,4,6-trifluorophenyl)-1,4-dihydro-1,8-naphthyridine-3-carboxamide] | 73 | 89 | – | – |
| CC(C)C[C@@H](NC(=O)c1cn(-c2c(F)cc(F)cc2F)c2nc(N3CCNC3=O)ccc2c1=O)C(F)(F)F [Example 580, 4-Oxo-7-(2-oxoimidazolidin-1-yl)-N-[(2R)-1,1,1-trifluoro-4-methylpentan-2-yl)-1-(2,4,6-trifluorophenyl)-1,4-dihydro-1,8-naphthyridine-3-carboxamide] | 14 | 100 | – | – |
| O=C(N[C@@H](C1CC1)C(F)(F)F)c1cn(-c2c(F)cc(F)cc2F)c2nc(N3CCC(CO)C3=O)ccc2c1=O (stereo partly drawn) [Example 468, N-[(1 S)-1-Cyclopropyl-2,2,2-trifluoroethyl]-7-[3-(hydroxymethyl)-2-oxopyrrolidin-1-yl]-4-oxo-1-(2,4,6-trifluorophenyl)-1,4-dihydro-1,8-naphthyridine-3-carboxamide] | 23 | 98.5 | – | – |
| CC[C@@H](NC(=O)c1cn(-c2ccc(F)cc2F)c2nc(N3CCCC3=O)ccc2c1=O)C(F)(F)F [Example 337, 1-(2,4-Difluorophenyl)-4-oxo-7-(2-oxopyrrolidin-1-yl)-N-[(2R)-1,1,1-trifluorobutan-2-yl]-1,4-dihydro-1,8-naphthyridine-3-carboxamide] | – | – | 36 | – |
| COC(=O)N1CCN(c2ccc3c(=O)c(C(=O)NC(C)(C)CC(F)(F)F)cn(-c4c(F)cc(F)cc4F)c3n2)CC1 [Example 575, Methyl 4-{5-oxo-6-[(4,4,4-trifluoro-2-methylbutan-2-yl)carbamoyl]-8-(2,4,6-trifluorophenyl)-5,8-dihydro-1,8-naphthyridin-2-yl}piperazine-1-carboxylate] | 13 | 96 | – | – |
| O=C(NC(c1c(F)cccc1F)C(F)(F)F)c1cn(-c2ccc(F)cc2F)c2nc(N3CCC(O)CC3=O)ccc2c1=O (single isomer, unassigned) [Example 253, 1-(2,4-Difluorophenyl)-N-[1-(2,6-difluorophenyl)-2,2,2-trifluoroethyl]-7-[4-hydroxy-2-oxopiperidin-1-yl]-4-oxo-1,4-dihydro-1,8-naphthyridine-3-carboxamide] | – | – | 483 | – |
